Here are results for 2 compounds from article PMC5893361 (International Journal for Parasitology, 2018).

One assay addresses T1, BmVAL-1 (Brugia malayi, UniProt A0A0J9Y762).
T1 construct: gene bma-scl-11.3; mature protein without 16-residue signal peptide, two vector-derived C-terminal residues; 206 residues; secreted from Nicotiana benthamiana; N-glycosylated at N52 and N138
Nature of the assay: radioligand saturation binding, Q-sepharose adsorption.

Another assay deals with T2, Pry1 (Saccharomyces cerevisiae, UniProt P47032).
T2 construct: construct not described here (full length secreted protein or CAP domain)
T2 sequence (P47032 20-299): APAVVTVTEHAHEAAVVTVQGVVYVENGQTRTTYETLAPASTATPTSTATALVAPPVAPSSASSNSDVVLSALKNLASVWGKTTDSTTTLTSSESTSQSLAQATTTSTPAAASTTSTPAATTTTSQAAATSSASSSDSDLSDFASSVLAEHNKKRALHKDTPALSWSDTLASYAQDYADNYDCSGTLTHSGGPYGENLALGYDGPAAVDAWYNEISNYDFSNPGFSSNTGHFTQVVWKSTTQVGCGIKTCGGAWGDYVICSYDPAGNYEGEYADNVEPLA
The assay is described as above.

Read-outs that look alike come from different tables or passages of the source.

T1 sequence (A0A0J9Y762 entry or part of it): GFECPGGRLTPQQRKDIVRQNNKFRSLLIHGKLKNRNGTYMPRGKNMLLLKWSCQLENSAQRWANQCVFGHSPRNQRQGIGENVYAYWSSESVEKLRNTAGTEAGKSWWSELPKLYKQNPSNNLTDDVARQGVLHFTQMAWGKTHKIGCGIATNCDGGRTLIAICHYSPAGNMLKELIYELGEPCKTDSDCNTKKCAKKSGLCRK

For orientation: Kd means the concentration at which binding is half-saturated. As for `CC(C)CCC[C@@H](C)[C@H]1CC[C@H]2[C@@H]3CC=C4C[C@@H](O)CC[C@]4(C)[C@H]3CC[C@]12C` [cholesterol], the dissociation constant (Kd) at BmVAL-1 came out at 990 nM; on Pry1 it was 1900 nM.

As to `CCCCCCCCCCCCCCCC(=O)O` [palmitate], the Kd on BmVAL-1 (read-out: Kd) is 83000 nM.
